Experimental data taken from patent US20090258053A1, “MEDICAL STENT PROVIDED WITH A COMBINATION OF MELATONIN AND PACLITAXEL” (Blue Medical Deevices BV, priority 2006, published 2009).
Where “and” joins values, the source holds several entries; their conditions need not be identical. Equal entries are not always repeated.

Key:
HCASMC = assay: CytoTox-ONE LDH release cytotoxicity assay, HCASMC; assay type: cell-based, human; conditions: 48 hours, 0.2 to 6 mM Melatonin
Procedure: (§1) Cytotoxicity experiments were performed with cells cultured on 96-well plates. The CytoTox-ONE™ Assay from Promega was used to assess the membrane integrity of cells. This test is based on a fluorometric method to estimate the number of non viable cells present in multiwell plates by measuring the release of lactate dehydrogenase (LDH) from cells with damaged membranes. Subconfluent cells were incubated for 48 hours with Melatonin at concentrations between 0.2 and 6 mM. During the 48 h Melatonin incubation, the medium was not changed to avoid removal of any detached cells. As a positive control three wells of untreated cells were incubated with lysis buffer (delivered with the assay) before measurement. At the end of the Melatonin incubation period, a volume of CytoTox-ONE reagent equal to the volume of cell culture medium present in each well was added. After 10 min incubation at 22° C. (room temperature), 50 μl of stop solution was added per 100 μl of CytoTox-ONE reagent added. The plate was shaked for 10 seconds and fluorescence was recorded with an excitation wavelength of 560 nm and an emission wavelength of 590 nm (Spectramax M2 fluorescence plate reader, Molecular devices).

[1] = test system: human coronary artery endothelial cells (HCAEC); assay: CellTiter 96 One solution (MTS) cell proliferation assay, HCAEC; assay type: cell-based
Procedure: (§2) Human coronary artery endothelial cells (HCAEC) were purchased from Cambrex and human coronary artery smooth muscle cells (HCASMC) were purchased from Promocell. Cells were used for experiments between passage 4 and passage 12. Both cell types were cultured in their respective complete culture medium with the following composition: • HCASMC: Smooth Muscle Cell Growth Medium 2: Epidermal Growth Factor (EGF), basic Fibroblast Factor (FGF), Insulin, Fetal Calf Serum (FCS) 5%, Amphotericin B, Gentamicin. • HCAEC: Endothelial Growth Media-2 MV: hEGF, Hydrocortisone, GA-1000, FBS 5%, VEGF, hFGF-B, R3-IGF-1, Ascorbic Acid Medium was changed every other day. 24 hours prior to growth factor stimulation, the medium was replaced by fresh culture medium, however, without growth factors to increase the cellular sensitivity to the subsequent growth factor stimulation. Subconfluent HCAEC were stimulated with 10 ng/ml of VEGF-A, whereas subconfluent HCASMC were stimulated with 10 ng/ml of PDGF-BB. Likewise, both cell types were stimulated with 25% of human serum (final concentration). Melatonin (Acros organics) was kindly provided by BlueMedical Devices BV. A stock solution was prepared in DMSO, aliquoted and stored at −20° C. For each experiment a fresh aliquot was opened and diluted to the desired final concentration in cell culture medium. All proliferation and cytotoxicity experiments were performed on cells cultured on 96 well plates (Costar). The CellTiter 96 One solution cell proliferation assay from Promega was used to assess cell proliferation in a 96-well plate. This assay makes use of the MTS tetrazolium compound as a cellular substrate. MTS is bioreduced by living cells into a coloured formazan product that is soluble in tissue culture medium and absorbs light at 490 nm. The quantity of formazan produced is directly proportional to the number of living cells in culture. After 24 h stimulation, 20 μl of MTS reagent was added to the cells cultured in 100 ul of medium per well. After 2 to 4 hours of incubation at 37° C., 5% CO2, the absorbance at 490 nm was recorded using a 96-well plate reader (Tecan).

[2] = test system: HUVEC (Human Umbilical Vein Endothelial Cells); assay: [3H]-thymidine incorporation, HUVEC stimulated with VEGF-A; assay type: cell-based; conditions: VEGF A 10 ng/ml 24 hours
Procedure: To investigate, whether melatonin has similar effects on other cell types, HUVEC (Human Umbilical Vein Endothelial Cells, Promocell) were tested. HUVEC were cultured in the corresponding complete medium (Endothelial Cell Growth Medium: ECGS/H 0.4%, Fetal Calf Serum 2%, Epidermal Growth Factor 0.1 ng/ml, Hydrocortison 1 μg/ml, basic Fibroblast Factor 1 ng/ml, Amphotericin B 50 ng/ml, Gentamicin 50 μg/ml). 24 hours prior to stimulation, the medium was replaced by a medium containing 2% serum and antibiotics, but devoid of the other complements. Then, HUVEC were stimulated with 10 ng/ml of VEGF-A for 24 hours. HUVEC were incubated for 48 hours with Melatonin and stimulated for 24 hours with VEGF-A at 10 ng/ml. After 24 hours of stimulation, the cells were incubated with radioactive [^3H]-thymidine. Two hour later, the medium was removed and cell-bound DNA was precipitated using 5% TCA (Trichloroacetic acid). Then, [^3H]-thymidine incorporation was measured using a beta-counter.

HCAEC [3] = assay: CytoTox-ONE LDH release cytotoxicity assay, HCAEC; assay type: cell-based, human; conditions: 48 hours, 0.2 to 6 mM Melatonin
Procedure: as §1

HCAEC [4] = assay: Chemotaxis towards VEGF-A, modified Boyden chamber, HCAEC; assay type: cell-based, human; conditions: 2 mM Melatonin; VEGF-A 10 ng/ml; migration 4 hours; performed only once
Procedure: Chemotaxis experiments were performed using a modified Boyden chamber. The apparatus consists of two multi-well chambers separated by a filter containing pores of uniform size. A solution containing a chemokine or chemotactic factor is placed in the lower/bottom chamber and a cell suspension is placed in the upper chamber. Cells can migrate through the pores across the filter and towards the chemoattractant in the lower chamber. Cells that migrated across the filter and remain attached to the lower side of the membrane are counted. Data are expressed in terms of migration index: the number of cells that migrated in response to agonist stimulation compared to the number of cells that migrated randomly, i.e. to medium only. Chemotaxis experiments so far were only performed with HCAEC. For these cells a 25×80 mm polycarbonate filter, […] (PVP) free was used (Whatman) with a pore size of […]. Before migration the filter was coated with collagen. Endothelial cells were incubated with Melatonin at 2 mM prior to and during migration. After 24 hours pre-incubation with Melatonin, untreated and Melatonin-treated cells were detached with trypsin and a cell suspension (0.5 million cells/ml) was loaded in the upper part of the chamber. […] At the end of migration, cells were fixed on the filter, stained with Giemsa and counted using a regular optic microscope.

[5] = test system: human coronary artery smooth muscle cells (HCASMC); assay: CellTiter 96 One solution (MTS) cell proliferation assay, HCASMC; assay type: cell-based
Procedure: as §2

COc1ccc2[nH]cc(CCNC(C)=O)c2c1 [Melatonin, N-acetyl-5-methoxytryptamine]
cytotoxic effect (LDH release) on HCASMC (HCASMC): does not induce any detectable cytotoxic effect
concentrations at which proliferation of HCAEC is strongly inhibited [1]: higher than 0.2 mM
effect on HCAEC cell number ([1]; Melatonin between 1 mM and 6 mM): dramatic decrease in cell number
sensitivity of HCAEC proliferation ([1]; Melatonin up to 0.1 mM): not sensitive
concentration of maximal effect on HCAEC cell number ([1]; subconfluent cells): 3 mM and 6 mM
effect on HUVEC ([2]; 0.2 mM Melatonin, 48 hours): inhibitory effect
VEGF-A induced [3H]-thymidine incorporation ([2]; Melatonin 48 hours): completely inhibited
cytotoxic effect (LDH release) on HCAEC (HCAEC [3]): does not induce any detectable cytotoxic effect
effect on chemotactic response of HCAEC towards VEGF-A (HCAEC [4]): did not have any significant effect
concentrations at which proliferation of HCASMC is strongly inhibited [5]: higher than 0.2 mM
effect on number of smooth muscle cells ([5]; 1 mM Melatonin, 24 hours pre-treatment, PDGF BB 10 ng/ml 24 h): significant decrease in the number of smooth muscle cells
effect on the proliferation of HCASMC ([5]; Melatonin up to 0.1 mM, PDGF BB 10 ng/ml 24 h): no significant effect
concentration of maximal inhibitory effect on HCASMC ([5]; PDGF-BB stimulated): 5 mM
inhibitory effect on HCASMC at higher concentrations ([5]; above 5 mM, up to 10 mM): no significant further increase in the inhibitory effect
